GI50 data for 4 compounds are collected here from ChEMBL document CHEMBL1148519, “Antitumor activity of tetrahydroisoquinoline analogues 3-epi-jorumycin and 3-epi-renieramycin G” (2006).

Experiment [1] deals with A549. The experiment can be described thus: Antiproliferative activity against human A549 cell line. It is filed as functional.
Experiment [2] has as its system HCT-116. The experiment can be described thus: Antiproliferative activity against human HCT116 cell line. The format is functional.

As to `COC1=C(C)C(=O)C2=C(C1=O)[C@@H]1[C@H]3CC4=C(C(=O)C(OC)=C(C)C4=O)[C@H](COC(C)=O)N3[C@@H](O)[C@H](C2)N1C`, the figures for the GI50 in experiment [1] and in experiment [2] were 4.64 µM and 0.61 µM, respectively.

As for `COC1=C(C)C(=O)C2=C(C1=O)[C@@H]1[C@@H]3CC4=C(C(=O)C(OC)=C(C)C4=O)[C@H](COC(C)=O)N3[C@@H](O)[C@H](C2)N1C`, the values for the GI50 in experiment [1] and in experiment [2] were 0.0192 µM and 0.0019 µM, respectively.

Consider `C/C=C(/C)C(=O)OC[C@H]1C2=C(C[C@@H]3[C@H]4C5=C(C[C@@H](C(=O)N31)N4C)C(=O)C(C)=C(OC)C5=O)C(=O)C(C)=C(OC)C2=O` [3-EPI-RENIERAMYCIN G], for which the values for the GI50 in experiment [1] and in experiment [2] were 10.1 µM and 1.4 µM, respectively.

Turning to `C/C=C(/C)C(=O)OC[C@H]1C2=C(C[C@H]3[C@H]4C5=C(C[C@@H](C(=O)N13)N4C)C(=O)C(C)=C(OC)C5=O)C(=O)C(C)=C(OC)C2=O` [(-)-RENIERAMYCIN G], the GI50 was 12.9 µM in experiment [1] and 3.87 µM in experiment [2].
